# Assay results published in US20080193619A1, “Use of Fullerence C60 as an Oil Stabilizer” (UNI PHARMA HOLDING AS, priority 2005, published 2008).
# Columns and labels:
# [1] = Storage (shelf life) test of salmon oil stabilized with antioxidant, degree of oxidation in fatty acids; design: degree of oxidation in fatty acids: unit not given here; conditions: for degree of oxidation in fatty acids: fullerene C60 0.001%, rosemary 0.1%
# Method: FIG. 2. Shelf life tests for salmon oil stabilized with fullerene or rosemary. The results are given as the change in the oxidation level of fatty acids in the oil. The antioxidants rosemary and fullerene were present at 0.1% and 0.001% by weight, respectively.
# Research on storage of salmon oil was carried out at temperatures of 25° C. and 5° C. during the time period from Jun. 11, 2003 to Nov. 10, 2004 (17 months). The quality of the rosemary and fullerene C60 as antioxidants in salmon oil was studied in parallel during the entire duration of the experiment.
# The concentration of the two chosen antioxidants used in the experiment were obtained by an addition of 0.1% rosemary (the same concentration used in the products UNIC Omega-3 and AniMega) and 0.001% fullerene C60.
# Standard methods of defining the degree of oxidation in fatty acids were used during selected time periods during the storage test. FIG. 2. presents data from a storage temperature of 5° C.
# [2] = Organoleptic testing (taste and smell) of stabilized salmon oil; conditions: salmon oil with the additive, organoleptic test
# Method: With basis in salmon oil as a nutritional supplement, organoleptic characteristics (determination of the quality of the oil by taste and smell) are also of importance. Standardized methods for organoleptic testing were utilized: one drop of salmon oil was placed on the arm and applied in a thin layer by means of a piece of glass. After one minute the quality of the oil could be determined by taste and smell. Five different individuals were tested, once per week, to obtain independent results. […] Both smell and taste was satisfactory at this point in time, and better for fullerene, witch kept well for 600 days, than for rosemary, witch only kept for 300 days.
# [3] = In vitro experiments: cytotoxicity and hepatotoxicity; assay type: cell-based; conditions: concentrations up to 100 mM in water
# [4] = tested on: cellular membranes; assay: In vitro experiments: cellular respiration and cellular membranes; assay type: cell-based
# [5] = In vitro experiments: antioxidant activity
# [6] = In vitro experiments: blood fibrillation
# [7] = In vivo experiments: toxicity, immunogenicity, allergenicity; conditions: dosages up to 25 mg/kg (0.0025% by weight) in aqueous solution
# [8] = concentrations up to 100 mM in water
smiles,measurement,setting,value
c12c3c4c5c1c1c6c7c2c2c8c3c3c9c4c4c%10c5c5c1c1c6c6c%11c7c2c2c7c8c3c3c8c9c4c4c9c%10c5c5c1c1c6c6c%11c2c2c7c3c3c8c4c4c9c5c1c1c6c2c3c41 [fullerene C60],keeping time of stabilized fish oil,[1]; fish oil stabilized with the antioxidant,600 days
same,degree of oxidation in fatty acids,"[1]; salmon oil, 5 C., day 0 (11.06)",0.00036
same,degree of oxidation in fatty acids,"[1]; salmon oil, 5 C., day 14 (25.06)",0.00083
same,degree of oxidation in fatty acids,"[1]; salmon oil, 5 C., day 81 (8.09)",0.0010
same,degree of oxidation in fatty acids,"[1]; salmon oil, 5 C., day 95 (22.09)",0.00095
same,degree of oxidation in fatty acids,"[1]; salmon oil, 5 C., day 109 (6.10)",0.0014
same,degree of oxidation in fatty acids,"[1]; salmon oil, 5 C., day 123 (20.10)",0.0012
same,degree of oxidation in fatty acids,"[1]; salmon oil, 5 C., day 185 (21.12)",0.0023
same,degree of oxidation in fatty acids,"[1]; salmon oil, 5 C., day 200 (05.01)",0.0027
same,degree of oxidation in fatty acids,"[1]; salmon oil, 5 C., day 214 (19.01)",0.0028
same,degree of oxidation in fatty acids,"[1]; salmon oil, 5 C., day 228 (02.02)",0.0028
same,degree of oxidation in fatty acids,"[1]; salmon oil, 5 C., day 242 (16.02)",0.0030
same,degree of oxidation in fatty acids,"[1]; salmon oil, 5 C., day 256 (2.03)",0.0030
same,degree of oxidation in fatty acids,"[1]; salmon oil, 5 C., day 270 (16.03)",0.0031
same,degree of oxidation in fatty acids,"[1]; salmon oil, 5 C., day 284 (30.03)",0.0033
same,degree of oxidation in fatty acids,"[1]; salmon oil, 5 C., day 298 (13.04)",0.0037
same,degree of oxidation in fatty acids,"[1]; salmon oil, 5 C., day 312 (27.04)",0.0039
same,degree of oxidation in fatty acids,"[1]; salmon oil, 5 C., day 326 (11.05)",0.0040
same,degree of oxidation in fatty acids,"[1]; salmon oil, 5 C., day 340 (25.05)",0.0043
same,degree of oxidation in fatty acids,"[1]; salmon oil, 5 C., day 354 (8.06)",0.0046
same,degree of oxidation in fatty acids,"[1]; salmon oil, 5 C., day 368 (22.06)",0.0048
same,degree of oxidation in fatty acids,"[1]; salmon oil, 5 C., day 372 (06.07)",0.0050
same,degree of oxidation in fatty acids,"[1]; salmon oil, 5 C., day 386 (20.07)",0.0052
same,degree of oxidation in fatty acids,"[1]; salmon oil, 5 C., day 414 (15.08)",0.0054
same,degree of oxidation in fatty acids,"[1]; salmon oil, 5 C., day 428 (29.08)",0.0055
same,degree of oxidation in fatty acids,"[1]; salmon oil, 5 C., day 442 (12.09)",0.0058
same,degree of oxidation in fatty acids,"[1]; salmon oil, 5 C., day 456 (26.09)",0.0061
same,degree of oxidation in fatty acids,"[1]; salmon oil, 5 C., day 470 (10.10)",0.0065
same,degree of oxidation in fatty acids,"[1]; salmon oil, 5 C., day 484 (24.10)",0.0066
same,degree of oxidation in fatty acids,"[1]; salmon oil, 25 C., day 0 (11.06)",0.00036
same,degree of oxidation in fatty acids,"[1]; salmon oil, 25 C., day 14 (25.06)",0.00076
same,degree of oxidation in fatty acids,"[1]; salmon oil, 25 C., day 81 (8.09)",0.0020
same,degree of oxidation in fatty acids,"[1]; salmon oil, 25 C., day 95 (22.09)",0.0031
same,degree of oxidation in fatty acids,"[1]; salmon oil, 25 C., day 109 (6.10)",0.0090
same,degree of oxidation in fatty acids,"[1]; salmon oil, 25 C., day 123 (20.10)",0.0015
same,degree of oxidation in fatty acids,"[1]; salmon oil, 25 C., day 185 (21.12)",0.012
same,degree of oxidation in fatty acids,"[1]; salmon oil, 25 C., day 200 (05.01)",0.015
same,degree of oxidation in fatty acids,"[1]; salmon oil, 25 C., day 214 (19.01)",0.022
same,degree of oxidation in fatty acids,"[1]; salmon oil, 25 C., day 228 (02.02)",0.034
same,degree of oxidation in fatty acids,"[1]; salmon oil, 25 C., day 242 (16.02)",0.037
same,degree of oxidation in fatty acids,"[1]; salmon oil, 25 C., day 256 (2.03)",0.038
same,degree of oxidation in fatty acids,"[1]; salmon oil, 25 C., day 270 (16.03)",0.040
same,degree of oxidation in fatty acids,"[1]; salmon oil, 25 C., day 284 (30.03)",0.041
same,degree of oxidation in fatty acids,"[1]; salmon oil, 25 C., day 298 (13.04)",0.044
same,degree of oxidation in fatty acids,"[1]; salmon oil, 25 C., day 312 (27.04)",0.047
same,degree of oxidation in fatty acids,"[1]; salmon oil, 25 C., day 326 (11.05)",0.049
same,degree of oxidation in fatty acids,"[1]; salmon oil, 25 C., day 340 (25.05)",0.054
same,degree of oxidation in fatty acids,"[1]; salmon oil, 25 C., day 354 (8.06)",0.059
same,degree of oxidation in fatty acids,"[1]; salmon oil, 25 C., day 368 (22.06)",0.063
same,degree of oxidation in fatty acids,"[1]; salmon oil, 25 C., day 372 (06.07)",0.066
same,degree of oxidation in fatty acids,"[1]; salmon oil, 25 C., day 386 (20.07)",0.068
same,degree of oxidation in fatty acids,"[1]; salmon oil, 25 C., day 414 (15.08)",0.070
same,degree of oxidation in fatty acids,"[1]; salmon oil, 25 C., day 428 (29.08)",0.072
same,degree of oxidation in fatty acids,"[1]; salmon oil, 25 C., day 442 (12.09)",0.080
same,degree of oxidation in fatty acids,"[1]; salmon oil, 25 C., day 456 (26.09)",0.085
same,degree of oxidation in fatty acids,"[1]; salmon oil, 25 C., day 470 (10.10)",0.088
same,degree of oxidation in fatty acids,"[1]; salmon oil, 25 C., day 484 (24.10)",0.089
same,effectiveness as additive (antioxidant) compared with rosemary,"[1]; salmon oil, temperature of 5 C",more effective additive than rosemary
same,time the oil kept (smell and taste),[2],600 days
same,cytotoxicity,[3],not cytotoxic
same,hepatotoxicity,[3],not cytotoxic or hepatoxic
same,inhibition of cellular respiration,[4]; [8],does not inhibit cellular respiration
same,inhibition of membrane catalytic activity,[4]; [8],does not inhibit cellular respiration or inhibition of membrane catalytic activity
same,stabilization of cellular membranes,[4]; stability during unfavourable conditions,stabilizes cellular membranes
same,"antioxidant activity compared with ionol, vitamin E and beta-carotene",[5],"greater than ionol, vitamin E, and beta-carotene"
same,effect on blood fibrillation,[6],no bearing on blood fibrillation
same,allergenicity in vivo,[7],"not toxic, immunogenic, or an allergen"
same,immunogenicity in vivo,[7],"not toxic, immunogenic"
same,toxicity in vivo,[7],not toxic
